Read-outs that look alike come from different tables or passages of the source.

One assay relates to Escherichia coli. In words: Antimicrobial activity enhancing action: MIC of novobiocin or erythromycin alone or in combined use with cyclodextrin derivative, Escherichia coli. The format is cell-based. The protocol:
The evaluation was performed by a procedure as follows. Specifically, before testing, each of the bacteria were incubated on a minimal salt medium combined with common bacteria-use dried broth or polypeptone and reached a logarithmic growth phase. […] Some of existing antimicrobial substances fail to exert their inherent antimicrobial activities, due to the bacterial membrane serving as a physical barrier. In these cases, the substances offer high minimum inhibitory concentrations (MICs) necessary for inhibiting the bacterial growth and are considered as having no antimicrobial (antibacterial) activity. In particular, this allows Gram-negative bacteria, which have not only a cytoplasmic membrane, but also a bacterial outer membrane, to have remarkable drug resistance. […] Next, the compound (cyclodextrin derivative) (a) represented by Chemical Formula (11) was evaluated for antimicrobial activity enhancing action through a test performed by a procedure similar to that in Example 3.

For another assay, the system named is Pseudomonas aeruginosa. Put plainly: Antimicrobial activity enhancing action: MIC of novobiocin or erythromycin alone or in combined use with cyclodextrin derivative, Pseudomonas aeruginosa. To be noted: cyclodextrin derivative 0 μg/mL (single use). The format is cell-based.

Procedure for Pseudomonas aeruginosa: The evaluation was performed by a procedure as follows. Specifically, before testing, each of the bacteria were incubated on a minimal salt medium combined with common bacteria-use dried broth or polypeptone and reached a logarithmic growth phase. […] The testing incubation was performed at an initial bacterial concentration of 1×10^4 cells per milliliter.
The test was performed using bacteria Escherichia coli and Pseudomonas aeruginosa.

`CC[C@H]1OC(=O)[C@H](C)[C@@H](O[C@H]2C[C@@](C)(OC)[C@@H](O)[C@H](C)O2)[C@H](C)[C@@H](O[C@@H]2O[C@H](C)C[C@H](N(C)C)[C@H]2O)[C@](C)(O)C[C@@H](C)C(=O)[C@H](C)[C@@H](O)[C@]1(C)O` [erythromycin]: in the assay on Escherichia coli (read-out: Minimum inhibitory concentration (MIC) of erythromycin, cyclodextrin derivative 0 μg/mL (single use)), the MIC turned out to be 64 µg/mL.

In the case of `CO[C@@H]1[C@@H](OC(N)=O)[C@@H](O)[C@H](Oc2ccc3c(O)c(NC(=O)c4ccc(O)c(CC=C(C)C)c4)c(=O)oc3c2C)OC1(C)C` [novobiocin], the MIC worked out at 128 µg/mL in the assay on Escherichia coli (cyclodextrin derivative 0 μg/mL (single use), read-out: Minimum inhibitory concentration (MIC) of novobiocin) and 2050 µg/mL with Pseudomonas aeruginosa (read-out: Minimum inhibitory concentration (MIC) of novobiocin). For the same compound, in the assay with Pseudomonas aeruginosa, the “Minimum inhibitory concentration (MIC) of novobiocin” value amounted to 2048 µg/mL.

Values taken from patent US20210300960A1, “SUGAR DERIVATIVE OR SALT THEREOF, AND ANTIBACTERIAL AGENT OR ANTIBACTERIAL ACTIVITY ENHANCER USING SAME” (NAGOYA INSTITUTE OF TECHNOLOGY, priority 2016, published 2021).
